Assay results: patent US20070134693A1, “Method for modulating the binding activity of a novel ICAM-3 binding receptor on sinusoidal endothelial cells in liver and lymph nodes” (priority 2000, published 2007)

Assays:
Type in all cases: cell-based
L-SIGN [1] = target: T1, L-SIGN (Homo sapiens, UniProt Q9H2X3); experiment: Fluorescent beads adhesion assay, K562-L-SIGN cells; conditions: for inhibition of adhesion of ICAM-3-coated fluorescent beads to L-SIGN: FIG. 4A; for inhibition of adhesion of HIV-1 gp120-coated fluorescent beads to L-SIGN: FIG. 4B
T1 construct: The L-SIGN cDNA clone isolated from placental mRNA contained the entire coding region of the gene; expressed in transfected cells
T1 sequence (Q9H2X3 1-376 isoform Q9H2X3-8): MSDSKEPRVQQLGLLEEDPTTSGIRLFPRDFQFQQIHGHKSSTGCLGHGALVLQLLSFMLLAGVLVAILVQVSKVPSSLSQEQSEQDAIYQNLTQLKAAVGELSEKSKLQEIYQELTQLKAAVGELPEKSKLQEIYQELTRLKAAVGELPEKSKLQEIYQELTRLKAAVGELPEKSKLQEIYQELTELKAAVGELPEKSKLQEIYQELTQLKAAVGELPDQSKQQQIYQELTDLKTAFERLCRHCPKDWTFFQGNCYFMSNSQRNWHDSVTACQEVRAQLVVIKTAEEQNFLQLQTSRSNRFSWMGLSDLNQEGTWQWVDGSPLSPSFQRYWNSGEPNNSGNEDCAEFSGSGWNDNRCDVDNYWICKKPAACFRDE
Method: (§1) FIG. 4. L-SIGN binds ICAM-3 (A) and HIV-1 gp120 (B). Adhesion of ICAM-3 and gp120 to the K562-L-SIGN and K562-DC-SIGN cells was measured with the fluorescent bead adhesion assay (Geijtenbeek, T. B. et al., 1999, Blood 94:754-764). The y-axis represents the percent cells binding ligand-coated fluorescent beads. The L-SIGN-cross-reacting mAb AZN-D2 (20 μg/ml) and AZN-D3 (20 μg/ml) inhibit the adhesion of ICAM-3 and gp120 to L-SIGN, in contrast to the DC-SIGN-specific mAb AZN-D1 (20 μg/ml). […] Adhesion of both ligands to mock transfectants was less than 5%. One representative experiment out of three is shown (SD<5%).
(§2) Carboxylate-modified TransFluorSpheres (488/645 nm, 1.0 μm; Molecular Probes, Eugene, Oreg.) were coated with ICAM-3 as was previously described for ICAM-1 (Geijtenbeek, T. B. et al., 1999, Blood 94:754-764). Fluorescent beads were coated with M-tropic HIV-1MN envelope glycoprotein gp120 as follows: Streptavidin-coated fluorescent beads were incubated with biotinylated F(ab′)2 fragment rabbit anti-sheep IgG (6 μg/ml; Jackson Immunoresearch) followed by an overnight incubation with sheep-anti-gp120 antibody D7324 (Aalto Bio Reagents Ltd, Dublin, Ireland) at 4° C. The beads were washed and incubated with 250 ng/ml purified HIV-1 gp120 (provided by Immunodiagnostics, Inc through the NIH AIDS Research and Reference Reagent Program) overnight at 4° C.
(§3) The fluorescent beads adhesion assay was performed as described by Geijtenbeek et al.(l999, supra). Briefly, cells were resuspended in adhesion buffer (20 mM Tris-HCl pH 8.0, 150 mM NaCl, 1 mM CaCl2, 2 mM MgCl2, 0.5% BSA) at a final concentration of 5×10^6 cells/ml. 50,000 cells were pre-incubated with mAb (20 μg/ml) for 10 min at room temperature. Ligand-coated fluorescent beads (20 beads/cell) were added and the suspension was incubated for 30 min at 37° C. Adhesion was determined by measuring the percentage of cells that bound fluorescent beads using flow cytometry on a FACScan (Becton Dickinson, Oxnard, Calif.).

DC-SIGN [2] = target: T2, DC-SIGN (Homo sapiens, UniProt Q9NNX6); experiment: Fluorescent beads adhesion assay, K562-DC-SIGN cells; conditions: for inhibition of adhesion of ICAM-3-coated fluorescent beads to DC-SIGN: FIG. 4A; for inhibition of adhesion of HIV-1 gp120-coated fluorescent beads to DC-SIGN: FIG. 4B
T2 construct: expressed in transfected cells
T2 sequence (Q9NNX6 1-404): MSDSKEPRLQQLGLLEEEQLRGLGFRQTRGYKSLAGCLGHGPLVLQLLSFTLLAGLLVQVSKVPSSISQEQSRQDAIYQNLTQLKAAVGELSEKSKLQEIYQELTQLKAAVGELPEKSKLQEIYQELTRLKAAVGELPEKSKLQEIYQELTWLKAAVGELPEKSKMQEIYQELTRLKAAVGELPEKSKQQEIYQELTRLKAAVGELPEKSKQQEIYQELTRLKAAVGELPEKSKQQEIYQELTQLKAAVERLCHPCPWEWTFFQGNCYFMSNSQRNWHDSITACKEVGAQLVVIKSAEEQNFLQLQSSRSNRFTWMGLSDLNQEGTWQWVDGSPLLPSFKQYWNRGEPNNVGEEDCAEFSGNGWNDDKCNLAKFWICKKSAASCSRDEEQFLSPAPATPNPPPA
Method: as §1, §2, §3

DC-SIGN [3] = target: T2, DC-SIGN; experiment: HIV-1 enhancement assay, pseudotyped HIV-1 ADA, HEK293T cells expressing DC-SIGN co-cultured with activated T cells; conditions: preincubation 20 μg/ml, after two days, FIG. 5B
Method: (§4) FIG. 5. L-SIGN captures and enhances infection of T cells with HIV-1 in trans. (A) L-SIGN captures HIV-1 and transmits it to target cells. Stable DC-SIGN or L-SIGN expressing THP-1 transfectants were pre-incubated with HIV-luc/JRFL pseudovirions to allow capture of the virus. Cells were washed and THP-1 transfectants were co-cultured with Hut/CCR5 target cells. Cell lysates were obtained after 3 days and analyzed for luciferase activity. For each of the co-culture conditions employed, mock infected controls were uniformly less than 100 counts per second in activity. Each data set represents the mean of four separate wells of infected cells. One representative experiment out of two is shown. […] Infectivity was determined after two days by measuring luciferase activity. […] Culture supernatants were collected at day 14 after K562-T cell co-culture and HIV-1 production was measured using ELISA to determine p24 antigen levels. […]
(§5) The infection assays were performed as described previously (Geijtenbeek, 2000a, supra; Geijtenbeek 2000b, supra). […] Viral stocks were evaluated by limiting dilution on GHOST CXCR4/CCR5 and 293T-CD4-CCR5 cells.
(§6) In contrast, HIV-1 enhancement assays utilized suboptimal concentrations of virus (typically <0.05 m.o.i.) without a wash step. […] Cell lysates were obtained after several days and analyzed for either luciferase activity or p24 antigen levels. […]

L-SIGN [4] = target: T1, L-SIGN; experiment: HIV-1 enhancement assay, pseudotyped HIV-1 ADA, HEK293T cells expressing L-SIGN co-cultured with activated T cells; conditions: preincubation 20 μg/ml, after two days, FIG. 5B
Method: as §4, §5, §6

| Compound | inhibition of adhesion of ICAM-3-coated fluorescent beads to L-SIGN (L-SIGN [1]; 5 mM) | inhibition of adhesion of HIV-1 gp120-coated fluorescent beads to L-SIGN (L-SIGN [1]; 5 mM) | inhibition of adhesion of ICAM-3-coated fluorescent beads to DC-SIGN (DC-SIGN [2]; 5 mM) | inhibition of adhesion of HIV-1 gp120-coated fluorescent beads to DC-SIGN (DC-SIGN [2]; 5 mM) | inhibition of adhesion of ICAM-3-coated fluorescent beads to L-SIGN (L-SIGN [1]; 20 μg/ml) | inhibition of adhesion of HIV-1 gp120-coated fluorescent beads to L-SIGN (L-SIGN [1]; 20 μg/ml) | inhibition of adhesion of ICAM-3-coated fluorescent beads to DC-SIGN (DC-SIGN [2]; 20 μg/ml) | inhibition of adhesion of HIV-1 gp120-coated fluorescent beads to DC-SIGN (DC-SIGN [2]; 20 μg/ml) | inhibition of DC-SIGN-mediated enhancement of HIV-1 infection of T cells in trans (luciferase activity) (DC-SIGN [3]) | inhibition of L-SIGN-mediated enhancement of HIV-1 infection of T cells in trans (luciferase activity) (L-SIGN [4]) |
| --- | --- | --- | --- | --- | --- | --- | --- | --- | --- | --- |
| O=C(O)CN(CCOCCOCCN(CC(=O)O)CC(=O)O)CC(=O)O [EGTA] | inhibited | inhibited | inhibited | inhibited |  |  |  |  |  |  |
| mannan |  |  |  |  | inhibited | inhibited | inhibited | inhibited | efficiently inhibited | efficiently inhibited |
